Results taken from patent US20240006031A1, “PHYSIOLOGICALLY-BASED PHARM[…] MODEL” (CHA UNIVERSITY INDUSTRY-ACADEMIC COOPERATION FOUNDATION, priority 2020, published 2024).
Where two headings read alike, the source gives them in different places.

Key:
[1] = cited from earlier work
[2] = PFHxS standard exposure calculation and risk assessment using human PBPK core model; conditions: standard exposure 9.7 μg/kg/day
Text: The final parameters were used to calculate the correlation between the mean blood concentration at steady state and the external dose during repeated exposure to PFHxS. Specifically, using a human PBPK model constructed using human physiological parameters and substance-intrinsic parameters, a dose range was simulated and set, and the correlations described above were derived using regression analysis.
Next, the interspecies uncertainty factor (UFA) was applied to calculate the steady-state Caverage,human in humans. Specifically, the PFHxS PODhuman in the human body was calculated by using the correlation equation between the average blood concentration (Caverage) and the external dose during repeated exposure to PFHxS from which Caverage,human was derived. Next, the intraspecies uncertainty factor (UFH) was applied to the PODhuman to finalize the PFHxS standard exposure in the human body.
The PFHxS reference standard dose for external dose to PFHxS was used to derive the margin of safety (MoS) of PFHxS for men and women. Specifically, the blood PFHxS concentrations of men in Siheung (2.29 ng/mL) and women in Daegu (1.75 ng/mL), which are highly exposed to PFHxS, were substituted into the above correlation equation between the average blood concentration (Caverage) and the external dose to calculate the external dose.

[3] = Internal dose of PFHxS from rat model Caverage,rat at NOAEL with uncertainty factors; set-up: species or system human; conditions: versus internal dose 412.7 ng/mL
Method: First, to obtain the internal dose of PFHxS, the UFA was applied to the rat model by finding the Caverage,rat resulting from repeated exposure to NOAEL.
As a result, BEPOD was calculated as 4127.4 ng/mL.

O=S(=O)(O)C(F)(F)C(F)(F)C(F)(F)C(F)(F)C(F)(F)C(F)(F)F [PFHxS]
blood PFHxS concentration ([1]; men in Daegu): 2.19 ng/mL
blood PFHxS concentration ([1]; men in Siheung): 2.29 ng/mL
blood PFHxS concentration ([1]; women in Daegu): 1.75 ng/mL
blood PFHxS concentration ([1]; women in Siheung): 1.35 ng/mL
margin of safety (MoS) ([2]; men (Siheung, blood PFHxS 2.29 ng/mL)): 180.3
margin of safety (MoS) ([2]; women (Daegu, blood PFHxS 1.75 ng/mL)): 235.9
actual blood levels in Koreans compared with calculated internal dose [3]: in the safe zone
